Test results from ChEMBL document CHEMBL1201862, “PubChem BioAssay data set” (2004).
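A five-concentration, 48-hour dose response in 96-well plates underlies each endpoint, interpolated linearly between surrounding concentrations. The concentration for 50% growth inhibition is given as GI50.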 Active and inactive are the calls of the source. Rule as the data show it: active = GI50 up to about 1.1 µM and inactive = higher.

Key:
Assay in all cases: growth of human tumour cells (NCI), 48 h
786-0 = tested on: 786-0
A498 = tested on: A498
A549 = tested on: A549
ACHN = tested on: ACHN
CAKI-1 = tested on: CAKI-1
CCRF-CEM = tested on: CCRF-CEM
COLO 205 = tested on: COLO 205
DLD-1 = tested on: DLD-1
DMS-114 = tested on: DMS-114
DMS-273 = tested on: DMS-273
EKVX = tested on: EKVX
HCC 2998 = tested on: HCC 2998
HCT-116 = tested on: HCT-116
HCT-15 = tested on: HCT-15
HL-60 = tested on: HL-60
HOP-18 = tested on: HOP-18
HOP-62 = tested on: HOP-62
HOP-92 = tested on: HOP-92
HT-29 = tested on: HT-29
IGROV-1 = tested on: IGROV-1
K562 = tested on: K562
KM-20L2 = tested on: KM-20L2
KM12 = tested on: KM12
LOX IMVI = tested on: LOX IMVI
LXFL 529 = tested on: LXFL 529
M14 = tested on: M14
M19-MEL = tested on: M19-MEL
MOLT-4 = tested on: MOLT-4
Malme-3M = tested on: Malme-3M
NCI-H226 = tested on: NCI-H226
NCI-H23 = tested on: NCI-H23
NCI-H460 = tested on: NCI-H460
NCI-H522 = tested on: NCI-H522
OVCAR-3 = tested on: OVCAR-3
OVCAR-4 = tested on: OVCAR-4
OVCAR-5 = tested on: OVCAR-5
RPMI-8226 = tested on: RPMI-8226
RXF 393 = tested on: RXF 393
RXF 631 = tested on: RXF 631
SF-268 = tested on: SF-268
SF-295 = tested on: SF-295
SK-MEL-28 = tested on: SK-MEL-28
SK-MEL-2 = tested on: SK-MEL-2
SK-MEL-5 = tested on: SK-MEL-5
SK-OV-3 = tested on: SK-OV-3
SN12C = tested on: SN12C
SNB-19 = tested on: SNB-19
SNB-75 = tested on: SNB-75
SNB-78 = tested on: SNB-78
SR = tested on: SR
SW-620 = tested on: SW-620
TK-10 = tested on: TK-10
U-251 = tested on: U-251
UACC-257 = tested on: UACC-257
UACC-62 = tested on: UACC-62
UO-31 = tested on: UO-31
OVCAR-8 = tested on: OVCAR-8
SF-539 = tested on: SF-539
XF498 = tested on: XF498

Cc1ccc(NC(=O)/C(Cl)=C(/Cl)C(=O)O)cc1
GI50 (786-0): 17.3 µM (inactive) | GI50 (A498): 82.2 µM (inactive) | GI50 (A549): 69.8 µM (inactive) | GI50 (ACHN): 16.5 µM (inactive) | GI50 (CAKI-1): 17.3 µM (inactive) | GI50 (CCRF-CEM): 2.12 µM (inactive) | GI50 (COLO 205): 6.93 µM (inactive) | GI50 (DLD-1): 16.4 µM (inactive) | GI50 (DMS-114): 20 µM (inactive) | GI50 (DMS-273): 22.1 µM (inactive) | GI50 (EKVX): 16.1 µM (inactive) | GI50 (HCC 2998): 19.7 µM (inactive) | GI50 (HCT-116): 15 µM (inactive) | GI50 (HCT-15): 15.6 µM | GI50 (HL-60): 1.64 µM (inactive) | GI50 (HOP-18): 19.1 µM (inactive) | GI50 (HOP-62): 71.4 µM (inactive) | GI50 (HOP-92): 18.2 µM (inactive) | GI50 (HT-29): 18.3 µM (inactive) | GI50 (IGROV-1): 29.6 µM (inactive) | GI50 (K562): 3.57 µM (inactive) | GI50 (KM-20L2): 22.4 µM (inactive) | GI50 (KM12): 18.7 µM (inactive) | GI50 (LOX IMVI): 17.1 µM (inactive) | GI50 (LXFL 529): 11.9 µM (inactive) | GI50 (M14): 15.2 µM (inactive) | GI50 (M19-MEL): 16 µM (inactive) | GI50 (MOLT-4): 11.5 µM (inactive) | GI50 (Malme-3M): 15.6 µM (inactive) | GI50 (NCI-H226): 31.8 µM (inactive) | GI50 (NCI-H23): 17.5 µM (inactive) | GI50 (NCI-H460): > 100 µM (inactive) | GI50 (NCI-H522): 1.9 µM (inactive) | GI50 (OVCAR-3): 18.1 µM (inactive) | GI50 (OVCAR-4): 18.2 µM (inactive) | GI50 (OVCAR-5): 21 µM (inactive) | GI50 (RPMI-8226): 14.8 µM (inactive) | GI50 (RXF 393): 31 µM (inactive) | GI50 (RXF 631): 24.4 µM (inactive) | GI50 (SF-268): 23 µM (inactive) | GI50 (SF-295): 30.2 µM (inactive) | GI50 (SK-MEL-28): 18.9 µM (inactive) | GI50 (SK-MEL-2): 14.6 µM (inactive) | GI50 (SK-MEL-5): 28.4 µM (inactive) | GI50 (SK-OV-3): 18.8 µM (inactive) | GI50 (SN12C): 18.5 µM (inactive) | GI50 (SNB-19): > 100 µM (inactive) | GI50 (SNB-75): 17.7 µM (inactive) | GI50 (SNB-78): 30.1 µM (inactive) | GI50 (SR): 18.2 µM (inactive) | GI50 (SW-620): 15.1 µM (inactive) | GI50 (TK-10): 18.7 µM (inactive) | GI50 (U-251): 17.1 µM (inactive) | GI50 (UACC-257): 22 µM (inactive) | GI50 (UACC-62): 15.9 µM (inactive) | GI50 (UO-31): 17.8 µM (inactive)

CC1OC(OCC2COC(O)(Oc3c(-c4ccc(O)c(O)c4)oc4cc(O)cc(O)c4c3=O)C(O)C2O)C(O)C(O)C1O (centres undefined)
GI50 (786-0): > 100 µM (inactive) | GI50 (A498): > 100 µM (inactive) | GI50 (A549): > 100 µM (inactive) | GI50 (ACHN): > 100 µM (inactive) | GI50 (CAKI-1): > 100 µM (inactive) | GI50 (CCRF-CEM): > 100 µM (inactive) | GI50 (COLO 205): > 100 µM (inactive) | GI50 (DLD-1): > 100 µM (inactive) | GI50 (DMS-114): > 100 µM (inactive) | GI50 (DMS-273): > 100 µM (inactive) | GI50 (EKVX): > 100 µM (inactive) | GI50 (HCC 2998): > 100 µM (inactive) | GI50 (HCT-116): > 100 µM (inactive) | GI50 (HCT-15): > 100 µM | GI50 (HL-60): > 100 µM (inactive) | GI50 (HOP-18): > 100 µM (inactive) | GI50 (HOP-62): > 100 µM (inactive) | GI50 (HOP-92): > 100 µM (inactive) | GI50 (HT-29): > 100 µM (inactive) | GI50 (IGROV-1): > 100 µM (inactive) | GI50 (K562): > 100 µM (inactive) | GI50 (KM-20L2): > 100 µM (inactive) | GI50 (KM12): > 100 µM (inactive) | GI50 (LOX IMVI): > 100 µM (inactive) | GI50 (LXFL 529): > 100 µM (inactive) | GI50 (M14): > 100 µM (inactive) | GI50 (M19-MEL): > 100 µM (inactive) | GI50 (MOLT-4): > 100 µM (inactive) | GI50 (Malme-3M): > 100 µM (inactive) | GI50 (NCI-H226): > 100 µM (inactive) | GI50 (NCI-H23): > 100 µM (inactive) | GI50 (NCI-H460): > 100 µM (inactive) | GI50 (OVCAR-3): > 100 µM (inactive) | GI50 (OVCAR-4): > 100 µM (inactive) | GI50 (OVCAR-5): > 100 µM (inactive) | GI50 (OVCAR-8): > 100 µM (inactive) | GI50 (RPMI-8226): > 100 µM (inactive) | GI50 (RXF 393): > 100 µM (inactive) | GI50 (RXF 631): > 100 µM (inactive) | GI50 (SF-268): > 100 µM (inactive) | GI50 (SF-295): > 100 µM (inactive) | GI50 (SF-539): > 100 µM (inactive) | GI50 (SK-MEL-28): > 100 µM (inactive) | GI50 (SK-MEL-5): > 100 µM (inactive) | GI50 (SK-OV-3): > 100 µM (inactive) | GI50 (SN12C): > 100 µM (inactive) | GI50 (SNB-19): > 100 µM (inactive) | GI50 (SNB-75): > 100 µM (inactive) | GI50 (SNB-78): > 100 µM (inactive) | GI50 (SR): > 100 µM (inactive) | GI50 (SW-620): > 100 µM (inactive) | GI50 (TK-10): > 100 µM (inactive) | GI50 (U-251): > 100 µM (inactive) | GI50 (UACC-257): > 100 µM (inactive) | GI50 (UACC-62): > 100 µM (inactive) | GI50 (UO-31): > 100 µM (inactive) | GI50 (XF498): > 100 µM (inactive)

CC(=O)N1C(=O)C(=O)c2cc(Cl)ccc21
GI50 (786-0): > 100 µM (inactive) | GI50 (A498): > 100 µM (inactive) | GI50 (A549): > 100 µM (inactive) | GI50 (ACHN): > 100 µM (inactive) | GI50 (CCRF-CEM): > 10 µM (inactive) | GI50 (COLO 205): > 100 µM (inactive) | GI50 (DLD-1): > 100 µM (inactive) | GI50 (DMS-114): > 100 µM (inactive) | GI50 (DMS-273): > 100 µM (inactive) | GI50 (EKVX): > 100 µM (inactive) | GI50 (HCC 2998): > 100 µM (inactive) | GI50 (HCT-15): > 100 µM | GI50 (HL-60): > 100 µM (inactive) | GI50 (HOP-18): > 100 µM (inactive) | GI50 (HT-29): > 100 µM (inactive) | GI50 (IGROV-1): > 100 µM (inactive) | GI50 (K562): > 100 µM (inactive) | GI50 (KM12): > 100 µM (inactive) | GI50 (LOX IMVI): > 100 µM (inactive) | GI50 (LXFL 529): > 100 µM (inactive) | GI50 (M14): > 100 µM (inactive) | GI50 (M19-MEL): > 100 µM (inactive) | GI50 (MOLT-4): > 100 µM (inactive) | GI50 (Malme-3M): > 100 µM (inactive) | GI50 (NCI-H226): > 100 µM (inactive) | GI50 (NCI-H23): > 100 µM (inactive) | GI50 (NCI-H460): > 100 µM (inactive) | GI50 (OVCAR-3): > 100 µM (inactive) | GI50 (OVCAR-4): > 100 µM (inactive) | GI50 (OVCAR-5): > 100 µM (inactive) | GI50 (OVCAR-8): > 100 µM (inactive) | GI50 (RPMI-8226): > 100 µM (inactive) | GI50 (RXF 393): > 100 µM (inactive) | GI50 (RXF 631): > 100 µM (inactive) | GI50 (SF-268): > 100 µM (inactive) | GI50 (SF-295): > 100 µM (inactive) | GI50 (SF-539): > 100 µM (inactive) | GI50 (SK-MEL-28): > 100 µM (inactive) | GI50 (SK-MEL-5): > 100 µM (inactive) | GI50 (SK-OV-3): > 100 µM (inactive) | GI50 (SN12C): > 100 µM (inactive) | GI50 (SNB-19): > 100 µM (inactive) | GI50 (SNB-75): > 100 µM (inactive) | GI50 (SNB-78): > 100 µM (inactive) | GI50 (SR): > 100 µM (inactive) | GI50 (SW-620): > 100 µM (inactive) | GI50 (TK-10): > 100 µM (inactive) | GI50 (U-251): > 100 µM (inactive) | GI50 (UACC-62): > 100 µM (inactive) | GI50 (UO-31): > 100 µM (inactive) | GI50 (XF498): 0.234 µM (active)
